# Measured values as given in patent US20130244929A1 (priority 2010, published 2013).
# Where two headings read alike, the source gives them in different places.
# Assays:
# SpsB = target: T1, SpsB (Staphylococcus aureus, UniProt P0A070); test: Inhibition of SpsB enzyme activity (fluorescence-based assay, bacterial membrane fraction); type: biochemical
# T1 construct: using a bacterial membrane fraction as a source of SpsB; from tissue
# T1 sequence (P0A070 1-191): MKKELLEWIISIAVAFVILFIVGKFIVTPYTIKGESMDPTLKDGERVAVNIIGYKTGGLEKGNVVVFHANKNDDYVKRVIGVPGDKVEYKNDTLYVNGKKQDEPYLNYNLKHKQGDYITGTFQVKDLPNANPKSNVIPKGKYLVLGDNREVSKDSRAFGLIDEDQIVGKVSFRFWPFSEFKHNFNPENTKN
# Description: Signal peptidase enzyme activity was measured in a fluorescence-based assay using a bacterial membrane fraction as a source of SpsB (See Bruton et al., 2003, Eur J Med Chem 38:351-356). The SpsB substrate is a synthetic lipopeptide, decanoyl-K(DABCYL)-TPTAKA↓ASKKD-D(EDANS)—NH2 (prepared by JPT Peptide Technologies, Berlin, Germany). Assays were performed with 20 μM peptide substrate (Km≈5 μM) and reactions were initiated with enzyme addition (final protein concentration of 0.6 mg/mL). SpsB mediated cleavage of the peptide substrate was detected as an increase in fluorescence (excitation 340 nm/emission 460 nm).
# [1] = test system: MB 5393 (COL), a methicillin-resistant S. aureus strain; test: Determination of minimum and synergistic inhibitory concentration; type: cell-based; conditions: for SIC: presence of imipenem (4 μg/mL); for MIC: Staphylococcus aureus
# Description: MB 5393 (COL), a methicillin-resistant S. aureus strain, was inoculated into Trypticase Soy Broth (TSB, BBL) and grown in a humidified incubator for 18 hours with rotary shaking at 220 rpm and kept on ice until used.
# A quantity of imipenem (Merck Chemical Collection) was weighed out and dissolved into sterile 10 mM MOPS buffer at pH 7. This solution was diluted to 1600 μg/mL, 200 μg/mL, and 25 μg/mL and filter-sterilized through a 0.45 μm filter. From these solutions, seven 1:2 serial dilutions were prepared using sterile 10 mM MOPS buffer at pH 7. The final concentration ranges tested were 128 to 2 μg/mL, 16 to […], and 2 to 0.03 μg/mL. The solutions were kept refrigerated until used.
# Test compounds (EXAMPLES 1-67) were prepared in sterile water or DMSO at a concentration of 3.2 mg/mL. From this solution, 11 serial 1:2 dilutions were prepared using sterile water. The final concentration range tested was 64 to 0.0313 μg/mL. The solutions were kept refrigerated until used.
# Two-fold serial dilutions of test compounds were tested in the presence and absence of subinhibitory concentrations of imipenem (4 μg/mL) in 96-well U bottom microliter dishes in microbiological growth media. The plates were inoculated with bacterial cells to a final concentration of ˜5×10^5 CFU/mL. Test plates were incubated stationery at 37° C. for 22-24 hours.
# After 22 hours of incubation, the Minimum inhibitory concentrations (MICs) were determined, defined as the lowest concentration of antibiotic that prevented all visible growth in the absence of imipenem. Synergistic inhibitory concentrations (SICs) were determined, defined as the lowest concentration of antibiotic that prevented all visible growth in the presence of imipenen.
# [2] = MRSA COL, absence of imipenem, 22 hours, read-out: MIC
Compound,IC50 (SpsB),"SIC ([1]; MRSA COL, 22 hours)","MIC ([1]; MRSA, 22 h)","MIC [1, 2]","IC50 (SpsB; 20 μM peptide substrate, read-out: SpsB IC50)"
COc1ccc2cc1-c1cc(ccc1OC)[C@H](N(C)C(=O)[C@H](CCCCN)NC(=O)CCNC(=O)c1ccc(-c3ccc(CCCCCCCCC(C)(C)O)cc3)cc1)C(=O)N[C@@H](C)C(=O)N[C@H](C(=O)O)C2 [EXAMPLE 56],< 10 nM,H (H: SIC 0.062-1),1 to 8 µg/mL,,
CCCCCCCCCc1ccc(-c2ccc3cc(C(=O)NCCC(=O)N[C@@H](CCCCN)C(=O)N(C)[C@@H]4C(=O)N[C@@H](C)C(=O)N[C@H](C(=O)O)Cc5ccc(O)c(c5)-c5cc4ccc5O)sc3c2)cc1 [EXAMPLE 47],< 10 nM,G (G: SIC <0.0625),1 to 8 µg/mL,,
CCCCCCCCCc1ccc(-c2ccc(C(=O)NCCC(=O)N[C@@H](CCCN)C(=O)N(C)C3C(=O)N[C@@H](C)C(=O)N[C@H](C(=O)O)Cc4ccc(O)c(c4)-c4cc3ccc4O)cc2)cc1 (stereo partly drawn) [EXAMPLE 24],< 10 nM,G (G: SIC <0.0625),< 1 µg/mL,,
CCCc1ccc(-c2ccc(C(=O)NCCC(=O)N[C@@H](CCCN)C(=O)N(C)[C@@H]3C(=O)N[C@@H](C)C(=O)N[C@H](C(=O)O)Cc4ccc(O)c(c4)-c4cc3ccc4O)cc2)cc1 [EXAMPLE 55],< 10 nM,H (H: SIC 0.062-1),< 1 µg/mL,,
"C[C@@H]1NC(=O)[C@@H](N(C)C(=O)C(CCCCN)NC(=O)CCNC(=O)c2ccc(-c3ccc(-c4ccccc4)cc3)cc2)c2ccc(O)c(c2)-c2cc(ccc2O)C[C@@H](C(=O)O)NC1=O.O=C(O)C(F)(F)F (stereo partly drawn) [EXAMPLE 7, 6-[[(7S,10S,13S)-13-carboxy-3,18-dihydroxy-10-methyl-8,11-dioxo-9,12-diazatricyclo[13.3.1.1^2,6]icosa-1(19),2(20),3,5,15,17-hexaen-7-yl](methyl)amino]-6-oxo-5-({3-[(1,1′:4′,1″-terphenyl-4-ylcarbonyl)amino]propanoyl}amino)hexan-1-aminium trifluoroacetate]",10 to 50 nM,H (H: SIC 0.062-1),,< 1 µg/mL,
CC(C)CCCCCCc1ccc(-c2ccc(C(=O)NCCC(=O)N[C@@H](CCCCN)C(=O)N(C)[C@@H]3C(=O)N[C@@H](C)C(=O)N[C@H](C(=O)O)Cc4ccc(O)c(c4)-c4cc3ccc4O)cc2)cc1 [EXAMPLE 37],< 10 nM,G (G: SIC <0.0625),< 1 µg/mL,,
"CCCc1ccc(-c2ccc(C(=O)NCCC(=O)NC(CCCCN)C(=O)N(C)[C@@H]3C(=O)N[C@@H](C)C(=O)N[C@H](C(=O)O)Cc4ccc(O)c(c4)-c4cc3ccc4O)cc2)cc1.O=C(O)C(F)(F)F (stereo partly drawn) [EXAMPLE 2, 5-(R,S)-6-[[(7S,10S,3S)-13-carboxy-3,18-dihydroxy-10-methyl-8,11-dioxo-9,12-diazatricyclo[13.3.1.1^2,6]icosa-1(19),2(20),3,5,15,17-hexaen-7-yl](methyl)amino]-6-oxo-5-[(3-{[(4′-propylbiphenyl-4-yl)carbonyl]amino}propanoyl)amino]hexan-1-aminium trifluoroacetate]",10 to 50 nM,H (H: SIC 0.062-1),,1 to 8 µg/mL,
CCCc1ccc(-c2ccc(C(=O)NCCC(=O)N3CC(CCN)C[C@H]3C(=O)N(C)[C@@H]3C(=O)N[C@@H](C)C(=O)N[C@H](C(=O)O)Cc4ccc(O)c(c4)-c4cc3ccc4O)cc2)cc1 (stereo partly drawn) [EXAMPLE 53],< 10 nM,G (G: SIC <0.0625),< 1 µg/mL,,
CCCCCCCCCCc1ccc2cc(C(=O)NCCC(=O)N[C@@H](CCCCNC(C)=O)C(=O)N(C)[C@@H]3C(=O)N[C@@H](C)C(=O)N[C@H](C(=O)O)Cc4ccc(O)c(c4)-c4cc3ccc4O)ccc2c1 [EXAMPLE 33],< 10 nM,G (G: SIC <0.0625),,> 8 µg/mL,
C[C@@H]1NC(=O)[C@@H](N(C)C(=O)[C@H](CCCCN)NC(=O)CCNC(=O)c2ccc(-c3ccc(C(C)(C)C)cc3)cc2)c2ccc(O)c(c2)-c2cc(ccc2O)C[C@@H](C(=O)O)NC1=O [EXAMPLE 42],< 10 nM,H (H: SIC 0.062-1),< 1 µg/mL,,
C[C@@H]1NC(=O)[C@@H](N(C)C(=O)[C@H](CCCCN)NC(=O)CCNC(=O)c2ccc(CCCCCCCc3ccccc3)cc2)c2ccc(O)c(c2)-c2cc(ccc2O)C[C@@H](C(=O)O)NC1=O [EXAMPLE 38],< 10 nM,G (G: SIC <0.0625),< 1 µg/mL,,
"CCCc1ccc(-c2ccc(C(=O)NCCC(=O)NC(CCCCN)C(=O)N(C)[C@@H]3C(=O)N[C@@H](C)C(=O)N[C@H](C(=O)O)Cc4ccc(OC)c(c4)-c4cc3ccc4OC)cc2)cc1.O=C(O)C(F)(F)F (stereo partly drawn) [EXAMPLE 1, 6-[[(7S,10S,13S)-13-carboxy-3,18-dimethoxy-10-methyl-8,11-dioxo-9,12-diazatricyclo[13.3.1.1^2,6]icosa-1(19),2(20),3,5,15,17-hexaen-7-yl](methyl)amino]-6-oxo-5-[(3-{[(4′-propylbiphenyl-4-yl)carbonyl]amino}propanoyl)amino]hexan-1-aminium trifluoroacetate]",10 to 50 nM,H (H: SIC 0.062-1),,1 to 8 µg/mL,
"CCCc1ccc(-c2ccc(C(=O)NCCC(=O)N(CCCCN)CC(=O)N(C)[C@@H]3C(=O)N[C@@H](C)C(=O)N[C@H](C(=O)O)Cc4ccc(OC)c(c4)-c4cc3ccc4OC)cc2)cc1.O=C(O)C(F)(F)F [EXAMPLE 11, 4-[{2-[[(7S,10S,13S)-13-carboxy-3,18-dimethoxy-10-methyl-8,11-dioxo-9,12-diazatricyclo[13.3.1.1^2,6]icosa-1(19),2(20),3,5,15,17-hexaen-7-yl](methyl)amino]-2-oxoethyl}(3-{[(4′-propylbiphenyl-4-yl)carbonyl]amino}propanoyl)amino]butan-1-aminium trifluoroacetate]",,H (H: SIC 0.062-1),,> 8 µg/mL,10 to 50 nM
C[C@@H]1NC(=O)[C@@H](N(C)C(=O)[C@H](CCCCN)NC(=O)CCNC(=O)c2ccc(-c3ccc(C4CCCCC4)cc3)cc2)c2ccc(O)c(c2)-c2cc(ccc2O)C[C@@H](C(=O)O)NC1=O [EXAMPLE 49],< 10 nM,G (G: SIC <0.0625),< 1 µg/mL,,
CC(c1ccc(-c2ccc(C(=O)NCCC(=O)N[C@@H](CCCCN)C(=O)N(C)[C@@H]3C(=O)N[C@@H](C)C(=O)N[C@H](C(=O)O)Cc4ccc(O)c(c4)-c4cc3ccc4O)cc2)cc1)C12CC3CC(CC(C3)C1)C2 (stereo partly drawn) [EXAMPLE 22],< 10 nM,G (G: SIC <0.0625),< 1 µg/mL,,
"CCCCCCCCCc1ccc(-c2ccc(C(=O)NCCC(=O)N3CC[C@H]3C(=O)N(C)[C@@H]3C(=O)N[C@@H](C)C(=O)N[C@H](C(=O)O)Cc4ccc(O)c(c4)-c4cc3ccc4O)cc2)cc1 [EXAMPLE 19, (8S,11S,14S)-3,18-dihydroxy-11-methyl-14-(methyl{[(2)-1-(3-{[(4′-nonylbiphenyl-4-yl)carbonyl]amino}propanoyl)azetidin-2-yl]carbonyl}amino)-10,13-dioxo-9,12-diazatricyclo[13.3.1.1^2,6]icosa-1(19),2(20),3,5,15,17-hexaene-8-carboxylic acid]",< 10 nM,G (G: SIC <0.0625),,1 to 8 µg/mL,
CCCCCCCCCCc1ccc2ccc(C(=O)NCCC(=O)N3CCC[C@H]3C(=O)N(C)[C@@H]3C(=O)N[C@@H](C)C(=O)N[C@H](C(=O)O)Cc4cccc(c4)-c4cc3ccc4OC)cc2c1 [EXAMPLE 67],10 to 50 nM,I (I: SIC >1),,> 8 µg/mL,
CCCCCCCCCCc1ccc2cc(C(=O)NCCC(=O)N[C@@H](CCCC(=O)O)C(=O)N(C)[C@@H]3C(=O)N[C@@H](C)C(=O)N[C@H](C(=O)O)Cc4ccc(O)c(c4)-c4cc3ccc4O)ccc2c1 [EXAMPLE 60],10 to 50 nM,G (G: SIC <0.0625),,1 to 8 µg/mL,
"CCCc1ccc(-c2ccc(C(=O)NCCC(=O)NC(CCCCN)C(=O)N(C)[C@@H]3C(=O)N[C@@H](C)C(=O)N[C@H](C(N)=O)Cc4ccc(O)c(c4)-c4cc3ccc4O)cc2)cc1.O=C(O)C(F)(F)F (stereo partly drawn) [EXAMPLE 6, trifluoroacetate]",10 to 50 nM,,,,
CCCc1ccc(-c2ccc(C(=O)NCCC(=O)NC(CCCCN)C(=O)N(C)[C@@H]3C(=O)N[C@@H](C)C(=O)N[C@H](C(N)=O)Cc4ccc(O)c(c4)-c4cc3ccc4O)cc2)cc1.O=C(O)C(F)(F)F (stereo partly drawn) [EXAMPLE 6],,H (H: SIC 0.062-1),< 1 µg/mL,,
